Laboratory results: ChEMBL document CHEMBL4007424, “Design and Synthesis of Enantiomerically Pure Decahydroquinoxalines as Potent and Selective κ-Opioid Receptor Agonists with Anti-Inflammatory Activity in Vivo” (J Med Chem, 2017)

How the values were obtained:
[1] = molecular target: Kappa-type opioid receptor (Cavia porcellus, UniProt P41144); experiment: Displacement of [3H]U-69,593 from kappa-type opioid receptor in guinea pig brain membranes after 120 mins by solid scintillation counting; format: cell membranes, Membrane
Sequence of Kappa-type opioid receptor (Cavia porcellus, UniProt P41144) (P41144 whole entry): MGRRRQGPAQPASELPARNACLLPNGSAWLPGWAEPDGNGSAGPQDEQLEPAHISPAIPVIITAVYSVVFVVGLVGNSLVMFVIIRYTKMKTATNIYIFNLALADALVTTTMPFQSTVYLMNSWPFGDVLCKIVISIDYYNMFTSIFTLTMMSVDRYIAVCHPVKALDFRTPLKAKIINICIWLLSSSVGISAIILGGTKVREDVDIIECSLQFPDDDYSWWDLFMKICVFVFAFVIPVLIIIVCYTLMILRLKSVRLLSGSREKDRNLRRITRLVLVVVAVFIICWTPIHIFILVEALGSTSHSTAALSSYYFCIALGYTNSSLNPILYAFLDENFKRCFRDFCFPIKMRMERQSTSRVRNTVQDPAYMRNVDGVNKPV

[2] = Displacement of [3H]DPDPE from delta-type opioid receptor in guinea pig brain membranes after 120 mins by solid scintillation counting; format: cell membranes, Cavia porcellus, Membrane
[3] = molecular target: T1, Kappa-type opioid receptor (Homo sapiens, UniProt P41145); experiment: Agonist activity at recombinant human kappa-type opioid receptor expressed in HEK293 cells after 30 mins by [35S]GTPgammaS binding assay; format: functional, cell-based
T1 sequence (P41145 whole entry): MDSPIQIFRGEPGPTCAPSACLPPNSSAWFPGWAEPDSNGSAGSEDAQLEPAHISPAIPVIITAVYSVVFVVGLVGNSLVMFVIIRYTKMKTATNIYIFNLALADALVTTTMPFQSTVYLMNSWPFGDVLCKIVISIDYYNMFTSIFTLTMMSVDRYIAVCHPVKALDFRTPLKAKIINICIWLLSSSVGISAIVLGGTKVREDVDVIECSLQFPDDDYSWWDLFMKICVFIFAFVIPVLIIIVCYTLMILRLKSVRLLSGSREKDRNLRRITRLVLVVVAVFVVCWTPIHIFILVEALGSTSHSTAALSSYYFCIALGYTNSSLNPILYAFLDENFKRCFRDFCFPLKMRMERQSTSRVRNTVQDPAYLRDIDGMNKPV

[4] = molecular target: Sigma non-opioid intracellular receptor 1 (Cavia porcellus) (UniProt Q60492); experiment: Displacement of [3H]-(+)-pentazocine from sigma1-type […] receptor in guinea pig cortex membranes at 1 uM after 120 mins by solid scintillation counting; format: cell membranes
Sequence of Sigma non-opioid intracellular receptor 1 (Cavia porcellus) (Q60492 whole entry): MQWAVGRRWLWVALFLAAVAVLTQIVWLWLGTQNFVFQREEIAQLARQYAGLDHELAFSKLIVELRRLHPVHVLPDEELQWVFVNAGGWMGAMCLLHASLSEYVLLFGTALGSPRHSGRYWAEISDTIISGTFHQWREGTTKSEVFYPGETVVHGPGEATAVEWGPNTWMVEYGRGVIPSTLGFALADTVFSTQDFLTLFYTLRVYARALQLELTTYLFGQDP

[5] = organism: Rattus norvegicus; experiment: Displacement of [3H]-DTG from sigma 2 receptor in rat liver membranes at 1 uM after 120 mins by scintillation counting; format: cell membranes; details: Membrane
[6] = organism: Sus scrofa; experiment: Displacement of [3H]-(+)-MK 801 from PCP binding site of NMDA receptor in pig brain cortex membranes at 10 uM after 120 mins by solid scintillation counting; format: cell membranes
[7] = molecular target: T1, Kappa-type opioid receptor; experiment: Agonist activity at recombinant human kappa-type opioid receptor expressed in HEK293 cells at 1 uM after 30 mins by [35S]GTPgammaS binding assay; format: functional, cell-based
[8] = molecular target: Mu-type opioid receptor (Cavia porcellus, UniProt P97266); experiment: Displacement of [3H]DAMGO from mu-type opioid receptor in guinea pig brain membranes after 120 mins by solid scintillation counting; format: cell membranes, Membrane
Sequence of Mu-type opioid receptor (P97266 whole entry): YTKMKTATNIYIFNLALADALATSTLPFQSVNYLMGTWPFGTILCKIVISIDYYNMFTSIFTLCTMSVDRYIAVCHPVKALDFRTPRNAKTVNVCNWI

[9] = tested on: Mus musculus; experiment: Antiinflammatory activity in arachidonic acid-induced ear dermatitis ICR mouse model assessed as reduction in ear swelling at 0.1 mg administered twice tropically 30 mins prior and 15 mins after arachidonic acid addition measured 60 mins post arachidonic acid challenge relative to control; format: functional
[10] = tested on: Mus musculus; experiment: Antiinflammatory activity in arachidonic acid-induced ear dermatitis ICR mouse model assessed as reduction in ear swelling at 0.3 mg administered twice tropically 30 mins prior and 15 mins after arachidonic acid addition measured 60 mins post arachidonic acid challenge relative to control; format: functional
[11] = tested on: Mus musculus; experiment: Antiinflammatory activity in arachidonic acid-induced ear dermatitis ICR mouse model assessed as reduction in ear swelling at 1 mg administered twice tropically 30 mins prior and 15 mins after arachidonic acid addition measured 60 mins post arachidonic acid challenge relative to control; format: functional
[12] = tested on: Mus musculus; experiment: Antiinflammatory activity in arachidonic acid-induced ear dermatitis ICR mouse model assessed as reduction in ear swelling at 3 mg administered twice tropically 30 mins prior and 15 mins after arachidonic acid addition measured 60 mins post arachidonic acid challenge relative to control; format: functional

| Compound | Ki [1] [nM] | Ki [2] [nM] | EC50 [3] [nM] | inhibition [4] [%] | inhibition [5] [%] | inhibition [6] [%] | Activity [7] [%] | Ki [8] [nM] | inhibition (INH) [9] [%] | inhibition (INH) [10] [%] | inhibition (INH) [11] [%] | inhibition (INH) [12] [%] |
| --- | --- | --- | --- | --- | --- | --- | --- | --- | --- | --- | --- | --- |
| COC(=O)N1CCN(C(=O)Cc2ccc(Cl)c(Cl)c2)[C@@H]2[C@@H](N(C)C)CCC[C@@H]21 | 0.16 | 7.9 | 1 |  |  |  |  |  |  |  |  |  |
| CS(=O)(=O)N1CCN(C(=O)Cc2ccc(Cl)c(Cl)c2)[C@@H]2[C@@H](N3CCCC3)CCC[C@@H]21 [listing 1 of 2 here] |  |  |  | 0 | 5 | 0 | 106 |  |  |  |  |  |
| CS(=O)(=O)N1CCN(C(=O)Cc2ccc(Cl)c(Cl)c2)[C@@H]2[C@@H](N3CCCC3)CCC[C@@H]21 [listing 2 of 2 here] | 0.31 | 1090 | 1.5 |  |  |  |  | 91 |  |  |  |  |
| CS(=O)(=O)N1CCN(C(=O)Cc2ccc(Cl)c(F)c2)[C@@H]2[C@@H](N3CC[C@H](O)C3)CCC[C@@H]21 [listing 1 of 2 here] | 2.1 | 394 | 8 |  |  |  |  | 308 | 33 | 43 | 46 | 71 |
| COC(=O)N1CCN(C(=O)Cc2ccc(Cl)c(F)c2)[C@@H]2[C@@H](N3CC[C@H](O)C3)CCC[C@@H]21 | 1.8 | 250 | 3.9 |  |  |  |  | 551 | 2 | 37 | 59 | 68 |
| COC(=O)CN1CCN(C(=O)Cc2ccc(Cl)c(Cl)c2)[C@@H]2[C@@H](N3CCCC3)CCC[C@@H]21 |  |  |  | 0 | 0 | 13 | 111 |  |  |  |  |  |
| COC(=O)N1CCN(C(=O)Cc2ccc(Cl)cc2)[C@@H]2[C@@H](N3CC[C@H](O)C3)CCC[C@@H]21 | 0.65 | 451 | 14 |  |  |  |  | 365 | 24 | 27 | 27 | 62 |
| CC(C)NC(=O)N1CCN(C(=O)Cc2ccc(Cl)c(Cl)c2)[C@@H]2[C@@H](N3CCCC3)CCC[C@@H]21 | 2.5 | 237 | 4.5 |  |  |  |  |  |  |  |  |  |
| COC(=O)N1CCN(C(=O)Cc2ccc(F)c(Cl)c2)[C@@H]2[C@@H](N3CC[C@H](O)C3)CCC[C@@H]21 | 0.82 | 61 | 2.2 |  |  |  |  | 1300 | -12 | -4 | 58 | 66 |
| COC(=O)N1CCN(C(=O)Cc2ccc(C(F)(F)F)c(Cl)c2)[C@@H]2[C@@H](N3CC[C@H](O)C3)CCC[C@@H]21 [listing 1 of 2 here] | 0.27 | 394 | 0.3 |  |  |  |  | 612 |  |  |  |  |
| COC(=O)N1CCN(C(=O)Cc2ccc(C(F)(F)F)c(Cl)c2)[C@@H]2[C@@H](N3CC[C@H](O)C3)CCC[C@@H]21 [listing 2 of 2 here] |  |  |  | 30 | 5 | 0 | 100 |  |  |  |  |  |
| CS(=O)(=O)N1CCN(C(=O)Cc2ccc(Cl)c(F)c2)[C@@H]2[C@@H](N3CC[C@H](O)C3)CCC[C@@H]21 [listing 2 of 2 here] |  |  |  | 12 | 0 | 16 | 105 |  |  |  |  |  |
| O=C(Cc1ccc(Cl)c(Cl)c1)N1CCN[C@H]2CCC[C@H](N3CCCC3)[C@H]21 |  |  |  |  | 0 | 0 |  |  |  |  |  |  |
| CN(C)S(=O)(=O)N1CCN(C(=O)Cc2ccc(Cl)c(Cl)c2)[C@@H]2[C@@H](N3CCCC3)CCC[C@@H]21 |  |  |  | 0 | 0 |  | 105 |  |  |  |  |  |
| CS(=O)(=O)N1CCN(C(=O)Cc2ccc(F)c(Cl)c2)[C@@H]2[C@@H](N3CC[C@H](O)C3)CCC[C@@H]21 | 1.7 | 575 | 5.9 |  |  |  |  |  | 22 | 43 | 56 | 69 |
| COC(=O)N1CCN(C(=O)Cc2ccc(Cl)c(Cl)c2)[C@@H]2[C@@H](N3CC[C@H](O)C3)CCC[C@@H]21 |  |  |  | 0 | 12 | 21 | 113 |  |  |  |  |  |
